From patent US4477443A, “Tylosin derivatives, their preparation and pharmaceutical compositions containing them” (Zaidan Hojin Biselbutsu Kagaku Kenkyu Kai (Microbial …, priority 1981, dated 1984) come the findings set out here.

Structures are written as SMILES. Converted amounts (≈) assume the structure as drawn. Where two headings read alike, the source gives them in different places.

Common to all, as to format: cell-based
Assay [1] has as its system Staph. aureus ATCC 6538P. In words: antimicrobial activity (MIC), Table II. As to conditions: Staphylococcus aureus, ATCC6538P; Staph. aureus ATCC 6538P; read-out: MIC.
Assay [2] has as its system B. subtilis ATCC 6633. The experiment in a line: antimicrobial activity (MIC), Table II. The note with it: Bacillus subtilis, ATCC6633; B. subtilis ATCC 6633; read-out: MIC.
Assay [3] has as its system Staph. aureus KC-11. The experiment in a line: antimicrobial activity (MIC), Table II. As to conditions: Staphylococcus aureus, KC11; Staph. aureus KC-11; read-out: MIC.
In assay [4] the test system is B. cereus. The experiment in a line: antimicrobial activity (MIC), Table II. The note with it: Bacillus cereus; B. cereus; read-out: MIC.
Assay [5] has as its system Staph. epidermidis IID 866. The experiment in a line: antimicrobial activity (MIC), Table II. The note with it: Staphylococcus epidermidis, IID866.
Assay [6] relates to Staph. aureus 226. The experiment in a line: antimicrobial activity (MIC), Table II. The note with it: Staphylococcus aureus; Staph. aureus 226; read-out: MIC.
Assay [7] relates to Staph. aureus 193. In words: antimicrobial activity (MIC), Table I. The note with it: Staphylococcus aureus; Staph. aureus 193; read-out: MIC.
Assay [8] deals with B. subtilis NRRL B-558. The experiment in a line: antimicrobial activity (MIC), Table I. The note with it: Bacillus subtilis, NRRLB558; B. subtilis NRRL B-558; read-out: MIC.
The test system of assay [9] is E. coli K-12 ML 1410. The experiment in a line: antimicrobial activity (MIC), Table I. As to conditions: Escherichia coli, K12ML1410.
Assay [10] has as its system Shigella dysenteriae JS 11910. In words: antimicrobial activity (MIC), Table I. The note with it: JS11910.
The subject of assay [11] is Sal. enteritidis 1891. In words: antimicrobial activity (MIC), Table I. As to conditions: Salmonella enterica; Sal. enteritidis 1891; read-out: MIC.
Assay [12] relates to Sarcina lutea PCI 1001. The experiment in a line: antimicrobial activity (MIC), Table I. The note with it: Micrococcus luteus, PCI1001; Sarcina lutea PCI 1001; read-out: MIC.
The test system of assay [13] is E. coli NIHJ. The experiment in a line: antimicrobial activity (MIC), Table I. The note with it: Escherichia coli; E. coli NIHJ; read-out: MIC.
Assay [14] has as its system Kleb. pneumoniae PCI 602. In words: antimicrobial activity (MIC), Table I. The note with it: Klebsiella pneumoniae, PCI602; Kleb. pneumoniae PCI 602; read-out: MIC.
For assay [15], the system named is Staph. aureus 209 P. The experiment in a line: antimicrobial activity (MIC), Table I. As to conditions: Staphylococcus aureus; Staph. aureus 209 P; read-out: MIC.
For assay [16], the system named is Staph. aureus MS 9861. The experiment in a line: antimicrobial activity (MIC), Table I. As to conditions: Staphylococcus aureus, MS9861; Staph. aureus MS 9861; read-out: MIC.
The subject of assay [17] is Coryn. bovis 1810. The experiment in a line: antimicrobial activity (MIC), Table I. The note with it: Corynebacterium bovis; Coryn. bovis 1810; read-out: MIC.
In assay [18] the test system is E. coli K-12. The experiment in a line: antimicrobial activity (MIC), Table I. As to conditions: Escherichia coli, K12; E. coli K-12; read-out: MIC.
Assay [19] relates to Pro. vulgaris OX-19. In words: antimicrobial activity (MIC), Table I. The note with it: Proteus vulgaris, OX19; Pro. vulgaris OX-19; read-out: MIC.
Assay [20] has as its system E. coli K-12 R-5. The experiment in a line: antimicrobial activity (MIC), Table I. As to conditions: Escherichia coli, K12R5; E. coli K-12 R-5; read-out: MIC.

Usually MIC stands for the lowest concentration that inhibits growth of the organism. Turning to `CCC1OC(=O)CC(O)C(C)C(OC2OC(C)CC(N(C)C)C2O)C(CC=O)CC(C)C(=O)C=CC(C)=CC1COC(=O)CN(C)C` (stereo not shown) [Example 51, 23-O-dimethylaminoacetyl-4'-deoxymycaminosyltylonolide], the MIC came out at 0.78 µg/mL (≈ 1.17 µM) in [1]; 0.78 µg/mL (≈ 1.17 µM) in [2]; 0.78 µg/mL (≈ 1.17 µM) in assay [3]; 0.39 µg/mL (≈ 0.585 µM) in assay [4]; 0.39 µg/mL (≈ 0.585 µM) in assay [5]; 0.78 µg/mL (≈ 1.17 µM) in [6].
`CCC1OC(=O)CC(O)C(C)C(OC2OC(C)C(O)C(N(C)C)C2O)C(CC=O)CC(C)C(=O)C=CC(C)=CC1CN(CC)C(=O)c1ccco1` (stereo not shown) [Example 43, 23-deoxy-23-N-(2-furoyl)ethylaminomycaminosyl tylonolide]: the MIC was determined as 0.78 µg/mL (≈ 1.09 µM) in [1]; 0.78 µg/mL (≈ 1.09 µM) in assay [2]; 0.78 µg/mL (≈ 1.09 µM) in assay [3]; 0.39 µg/mL (≈ 0.543 µM) in [4]; 0.78 µg/mL (≈ 1.09 µM) in [5]; 0.78 µg/mL (≈ 1.09 µM) in assay [6].
As to `CCC1OC(=O)CC(O)C(C)C(OC2OC(C)CC(N(C)C)C2O)C(CC=O)CC(C)C(=O)C=CC(C)=CC1CN(CC)C(C)=O` (stereo not shown) [Example 47, 23-N-acetylethylamino-23,4'-dideoxymycaminosyl tylonolide], the MIC was 0.78 µg/mL (≈ 1.2 µM) in assay [1]; 0.78 µg/mL (≈ 1.2 µM) in assay [2]; 0.78 µg/mL (≈ 1.2 µM) in assay [3]; 0.39 µg/mL (≈ 0.599 µM) in assay [4]; 0.78 µg/mL (≈ 1.2 µM) in assay [5]; 1.56 µg/mL (≈ 2.4 µM) in [6].
For `CCC1OC(=O)CC(O)C(C)C(OC2OC(C)CC(N(C)C)C2O)C(CC=O)CC(C)C(=O)C=CC(C)=CC1CN(CC)C(=O)c1ccco1` (stereo not shown) [Example 45, 23,4'-dideoxy-23-N-(2-furoyl)ethylaminomycaminosyl tylonolide], the MIC in [1] is 0.78 µg/mL (≈ 1.11 µM); in assay [2], 0.39 µg/mL (≈ 0.555 µM); in assay [3], 0.78 µg/mL (≈ 1.11 µM); in assay [4] it was 0.39 µg/mL (≈ 0.555 µM); in [5] it was 0.39 µg/mL (≈ 0.555 µM); in assay [6], 0.78 µg/mL (≈ 1.11 µM).
On to `CCC1OC(=O)CC(O)C(C)C(OC2OC(C)CC(N(C)C)C2O)C(CC=O)CC(C)C(=O)C=CC(C)=CC1CNCC(C)(C)C` (stereo not shown) [Example 23, 23,4'-dideoxy-23-neopentylaminocaminosyl tylonolide], for which the MIC in assay [1] amounted to 0.78 µg/mL (≈ 1.2 µM); in assay [2] it was 1.56 µg/mL (≈ 2.4 µM); in assay [3] it was 0.78 µg/mL (≈ 1.2 µM); in assay [4] it was 0.78 µg/mL (≈ 1.2 µM); in [5] it was 0.78 µg/mL (≈ 1.2 µM); in assay [6] it was 0.78 µg/mL (≈ 1.2 µM).
With `CCC1OC(=O)CC(O)C(C)C(OC2OC(C)C(O)C(N(C)C)C2O)C(CC=O)CC(C)C(=O)C=CC(C)=CC1CN(C)C` (stereo not shown) [Example 4, 23-deoxy-23-dimethylaminomycaminosyl tylonolide], the MIC in assay [7] is 0.39 µg/mL (≈ 0.624 µM); in assay [8] it was 0.78 µg/mL (≈ 1.25 µM); in assay [9] (E. coli K-12 ML 1410, read-out: MIC), 1.56 µg/mL (≈ 2.5 µM); in assay [10] it was 0.39 µg/mL (≈ 0.624 µM); in assay [11], 1.56 µg/mL (≈ 2.5 µM); in assay [12], less than 0.2 µg/mL. Besides, the MIC in [13] turned out to be 0.78 µg/mL (≈ 1.25 µM); in [14], 0.78 µg/mL (≈ 1.25 µM); in [15] it was 0.2 µg/mL (≈ 0.32 µM); in [16], 1.56 µg/mL (≈ 2.5 µM); in [17] it was 0.78 µg/mL (≈ 1.25 µM); in assay [18], 1.56 µg/mL (≈ 2.5 µM). In addition, the MIC in assay [19] and in [20] was 1.56 µg/mL (≈ 2.5 µM) throughout.
With `CCC1OC(=O)CC(O)C(C)C(OC2OC(C)CC(N(C)C)C2O)C(CC=O)CC(C)C(=O)C=CC(C)=CC1CN1CCCC1` (stereo not shown) [Example 16, 23,4'-dideoxy-23-pyrrolidinomycaminosyl tylonolide], the minimum inhibitory concentration (MIC) in assay [7] was 1.56 µg/mL (≈ 2.46 µM); in [8], 0.78 µg/mL (≈ 1.23 µM); in assay [9] it was 3.12 µg/mL (≈ 4.91 µM); in assay [10], less than 0.2 µg/mL; in [11], 0.39 µg/mL (≈ 0.614 µM); in assay [12], less than 0.2 µg/mL. Moreover, the minimal inhibitory concentration (MIC) came out at 1.56 µg/mL (≈ 2.46 µM) in assay [13]; 0.78 µg/mL (≈ 1.23 µM) in [14]; 0.39 µg/mL (≈ 0.614 µM) in [15]; 3.12 µg/mL (≈ 4.91 µM) in assay [16]; 0.39 µg/mL (≈ 0.614 µM) in assay [17]; 3.12 µg/mL (≈ 4.91 µM) in assay [18]. The minimum inhibitory concentration (MIC) in assay [19] and in [20] was 1.56 µg/mL (≈ 2.46 µM) throughout.
Consider `CCC1OC(=O)CC(O)C(C)C(OC2OC(C)CC(N(C)C)C2O)C(CC=O)CC(C)C(=O)C=CC(C)=CC1CNC(C)(C)C` (stereo not shown) [Example 22, 23,4'-dideoxy-23-(t-butylamino)mycaminosyl tylonolide], for which the MIC is 0.78 µg/mL (≈ 1.22 µM) in assay [1]; 0.78 µg/mL (≈ 1.22 µM) in assay [2]; 0.78 µg/mL (≈ 1.22 µM) in assay [3]; 0.39 µg/mL (≈ 0.612 µM) in assay [4]; 0.78 µg/mL (≈ 1.22 µM) in assay [5]; 0.78 µg/mL (≈ 1.22 µM) in [6].
